# Source: ChEMBL document CHEMBL5143682, “Design and synthesis of cinnamic acid triptolide ester derivatives as potent antitumor agents and their biological evaluation” (Bioorg Med Chem Lett, 2022)
# System: HepG2
# Test: Antiproliferative activity against human HepG2 cells assessed as reduction in cell viability measured after 48 hrs by CCK-8 assay
# Type: functional, cell-based
# Details: HepG2, 48 h
row,SMILES,IC50 [nM]
1,COc1cc(CCC(=O)O[C@@H]2[C@@]3(C(C)C)O[C@H]3[C@@H]3O[C@]34[C@]23O[C@H]3C[C@H]2C3=C(CC[C@@]24C)C(=O)OC3)ccc1O,818
2,CCOP(=O)(OCC)Oc1ccc(/C=C/C(=O)O[C@@H]2[C@@]3(C(C)C)O[C@H]3[C@@H]3O[C@]34[C@]23O[C@H]3C[C@H]2C3=C(CC[C@@]24C)C(=O)OC3)cc1,578
3,CC(C)[C@]12O[C@H]1[C@@H]1O[C@]13[C@]1(O[C@H]1C[C@H]1C4=C(CC[C@@]13C)C(=O)OC4)[C@@H]2OC(=O)/C=C/c1ccc(N2CCCCC2)cc1,620
4,CCc1ccc(/C=C/C(=O)O[C@@H]2[C@@]3(C(C)C)O[C@H]3[C@@H]3O[C@]34[C@]23O[C@H]3C[C@H]2C3=C(CC[C@@]24C)C(=O)OC3)cc1,454
5,CC(C)[C@]12O[C@H]1[C@@H]1O[C@]13[C@]1(O[C@H]1C[C@H]1C4=C(CC[C@@]13C)C(=O)OC4)[C@@H]2OC(=O)/C=C/c1ccc(N(C)C)cc1,696
6,COc1cc(/C=C/C(=O)O[C@@H]2[C@@]3(C(C)C)O[C@H]3[C@@H]3O[C@]34[C@]23O[C@H]3C[C@H]2C3=C(CC[C@@]24C)C(=O)OC3)ccc1OCc1ccccc1,1020
7,CC(C)[C@]12O[C@H]1[C@@H]1O[C@]13[C@]1(O[C@H]1C[C@H]1C4=C(CC[C@@]13C)C(=O)OC4)[C@@H]2OC(=O)CCc1cccnc1,839
8,COc1cc(/C=C/C(=O)O[C@@H]2[C@@]3(C(C)C)O[C@H]3[C@@H]3O[C@]34[C@]23O[C@H]3C[C@H]2C3=C(CC[C@@]24C)C(=O)OC3)cc(OC)c1OC,689
9,CC(C)[C@]12O[C@H]1[C@@H]1O[C@]13[C@]1(O[C@H]1C[C@H]1C4=C(CC[C@@]13C)C(=O)OC4)[C@@H]2OC(=O)/C=C/c1ccc(F)cc1,439
10,CC(C)[C@]12O[C@H]1[C@@H]1O[C@]13[C@]1(O[C@H]1C[C@H]1C4=C(CC[C@@]13C)C(=O)OC4)[C@@H]2OC(=O)/C=C/c1ccc(C#N)cc1,591
11,CC(C)[C@]12O[C@H]1[C@@H]1O[C@]13[C@]1(O[C@H]1C[C@H]1C4=C(CC[C@@]13C)C(=O)OC4)[C@@H]2OC(=O)/C=C/c1ccccc1N1CCCCC1,1720
12,CC(C)[C@]12O[C@H]1[C@@H]1O[C@]13[C@]1(O[C@H]1C[C@H]1C4=C(CC[C@@]13C)C(=O)OC4)[C@@H]2OC(=O)/C=C/c1ccc(C(F)(F)F)cc1,899
13,COc1ccc(/C=C/C(=O)O[C@@H]2[C@@]3(C(C)C)O[C@H]3[C@@H]3O[C@]34[C@]23O[C@H]3C[C@H]2C3=C(CC[C@@]24C)C(=O)OC3)cc1,654
14,CC(C)[C@]12O[C@H]1[C@@H]1O[C@]13[C@]1(O[C@H]1C[C@H]1C4=C(CC[C@@]13C)C(=O)OC4)[C@@H]2OC(=O)/C=C/c1cc(Br)ccc1F,591
15,CC(C)[C@]12O[C@H]1[C@@H]1O[C@]13[C@]1(O[C@H]1C[C@H]1C4=C(CC[C@@]13C)C(=O)OC4)[C@@H]2O [TRIPTOLIDE],468
16,CC(C)[C@]12O[C@H]1[C@@H]1O[C@]13[C@]1(O[C@H]1C[C@H]1C4=C(CC[C@@]13C)C(=O)OC4)[C@@H]2OC(=O)/C=C/c1ccccc1,413
17,CC(C)[C@]12O[C@H]1[C@@H]1O[C@]13[C@]1(O[C@H]1C[C@H]1C4=C(CC[C@@]13C)C(=O)OC4)[C@@H]2OC(=O)/C=C/c1ccccc1F,381
18,COc1ccc(/C=C/C(=O)O[C@@H]2[C@@]3(C(C)C)O[C@H]3[C@@H]3O[C@]34[C@]23O[C@H]3C[C@H]2C3=C(CC[C@@]24C)C(=O)OC3)cc1OC,686
19,CC(C)[C@]12O[C@H]1[C@@H]1O[C@]13[C@]1(O[C@H]1C[C@H]1C4=C(CC[C@@]13C)C(=O)OC4)[C@@H]2OC(=O)/C=C/c1ccc(N2CCOCC2)cc1,783
20,CC(C)[C@]12O[C@H]1[C@@H]1O[C@]13[C@]1(O[C@H]1C[C@H]1C4=C(CC[C@@]13C)C(=O)OC4)[C@@H]2OC(=O)/C=C/c1cccnc1,538
21,CC(C)[C@]12O[C@H]1[C@@H]1O[C@]13[C@]1(O[C@H]1C[C@H]1C4=C(CC[C@@]13C)C(=O)OC4)[C@@H]2OC(=O)/C=C/c1ccc([N+](=O)[O-])cc1,695
22,COc1cc(/C=C/C(=O)O[C@@H]2[C@@]3(C(C)C)O[C@H]3[C@@H]3O[C@]34[C@]23O[C@H]3C[C@H]2C3=C(CC[C@@]24C)C(=O)OC3)cc([N+](=O)[O-])c1OC,663
23,CCOP(=O)(OCC)Oc1ccc(/C=C/C(=O)O[C@@H]2[C@@]3(C(C)C)O[C@H]3[C@@H]3O[C@]34[C@]23O[C@H]3C[C@H]2C3=C(CC[C@@]24C)C(=O)OC3)cc1OC,355
24,CC(C)[C@]12O[C@H]1[C@@H]1O[C@]13[C@]1(O[C@H]1C[C@H]1C4=C(CC[C@@]13C)C(=O)OC4)[C@@H]2OC(=O)/C=C/c1ccc(Br)cc1,838
25,CC(C)[C@]12O[C@H]1[C@@H]1O[C@]13[C@]1(O[C@H]1C[C@H]1C4=C(CC[C@@]13C)C(=O)OC4)[C@@H]2OC(=O)/C=C/c1ccc(S(C)(=O)=O)cc1,564
